Results reported in patent publication EP4755881A1 (Wuhan Createrna Science and Technology Co., Ltd., priority 2023, dated 2025).
Like-named read-outs stand apart in the source and are kept apart here.

Key:
[1] = target: hLPAR1 (human lysophosphatidic acid receptor 1, Accession No.: NM_001401.4) (Homo sapiens, UniProt Q92633); experiment: cell-based; conditions: FLIPR method, CHO-K1 cells overexpressing hLPAR1
Summary of the method: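 Antagonist mode in CHO-K1 cells stably expressing hLPAR1, Fluo-4 loaded; compound preincubated 30 min at room temperature before 1 µM oleoyl-LPA (final) challenge.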

[2] = Pharmacokinetic study in rats (oral gavage and tail vein injection, plasma LC-MS/MS); assay type: in vivo; conditions: rat; for Cmax: read-out: Cmax
Method: Male SPF-grade SD rats (Beijing Vital River Laboratory Animal Technology Co., Ltd.) with a body weight range of 200 to 250 g were used. After acclimatization, the rats were administered a clear solution of the compound of the present disclosure via oral gavage (Po, fasted overnight before administration with free access to water, food returned 4 hours after administration) and tail vein injection (Iv, free access to food and water throughout the administration). Blood samples were collected from the orbital venous plexus/jugular vein of rats at specified time points after administration (blood collection time points for the PO group: 0.167, 0.5, 1, 2, 4, 6, 8, and 24 h; for the IV group: 0.033, 0.167, 1, 2, 4, 6, 8, and 24 h). The concentration of compounds in plasma was detected by LC-MS/MS (AB SCIEX Qtrap4500). Data were analyzed using WinNonlin (version 5.2.1 Pharsight, Mountain View, CA) with a non-compartmental model to obtain PK parameters (including Cmax, C0, Tmax, AUClast, AUCinf, T1/2, etc.).
Table 3: Results of in vivo pharmacokinetic studies of compounds of the present disclosure in rats
The vehicle for the Po group compound was 5% DMSO + 5% ethanol + 60% PEG400 + 30% normal saline; the vehicle for the Iv group compound was 10% ethanol + 20% pure water + 70% PEG400 solution.

[3] = LPAR1 inhibitory activity IC50, Table 1
[4] = Table 1, read-out: LPAR1 inhibitory activity IC50

Chain of hLPAR1 (human lysophosphatidic acid receptor 1, Accession No.: NM_001401.4) (Q92633 whole entry): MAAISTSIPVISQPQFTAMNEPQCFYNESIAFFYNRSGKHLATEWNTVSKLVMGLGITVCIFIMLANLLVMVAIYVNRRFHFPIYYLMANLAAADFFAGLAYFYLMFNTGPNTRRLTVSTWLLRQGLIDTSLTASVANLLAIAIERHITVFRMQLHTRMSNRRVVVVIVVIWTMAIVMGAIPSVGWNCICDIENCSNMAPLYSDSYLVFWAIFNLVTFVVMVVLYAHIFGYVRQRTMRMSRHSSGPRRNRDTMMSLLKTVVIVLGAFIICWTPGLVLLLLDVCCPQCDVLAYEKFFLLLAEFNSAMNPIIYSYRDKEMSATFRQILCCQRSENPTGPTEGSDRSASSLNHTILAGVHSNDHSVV

IC50 [1, 4] | half-life ([2]; male, SD, iv, 1 mg/kg) | half-life ([2]; male, SD, po, 1 mg/kg) | AUC(0-t) ([2]; male, SD rats, Iv, 1 mg/kg) | Cmax ([2]; male, SD rats, Iv, 1 mg/kg) | AUC(0-t) ([2]; male, SD rats, Po, 1 mg/kg) | Cmax ([2]; male, SD rats, Po, 1 mg/kg) | SMILES | IC50 [1, 3] | AUC(0-t) ([2]; SD rats, Iv, 1 mg/kg) | half-life ([2]; SD rats, Iv, 1 mg/kg) | Cmax ([2]; SD rats, Iv, 1 mg/kg) | further results
 |  |  |  |  |  |  | CCCCN(C)C(=O)OCc1c(-c2ccc(C#CC3(CC(=O)O)CC3)c(F)n2)nnn1C [compound 105] | 56.2 nM | 1200 to 3000 ng·h/mL | 4.72 h | 800 to 5000 ng/mL | AUC(0-t) ([2]; SD rats, Po, 1 mg/kg): 1200 to 3000 ng·h/mL; half-life ([2]; SD rats, Po, 1 mg/kg): 6.6 h; Cmax ([2]; SD rats, Po, 1 mg/kg): 200 to 800 ng/mL
 |  |  |  |  |  |  | Cc1nc(-c2nnn(C)c2Nc2cncc(OC(C)C)n2)ccc1C#CC1(CC(=O)O)CC1 [compound 125, 2-(1-((6-(5-((6-isopropoxypyrazin-2-yl)amino)-1-methyl-1/7-1,2,3-triazol-4-yl)-2-methylpyridin-3-yl)ethynyl)cyclopropyl)acetic acid] | 43.6 nM | 1200 to 3000 ng·h/mL | 4.65 h | 800 to 5000 ng/mL | 
24.9 nM | 6.18 h | 6.08 h | 5000 to 10000 ng·h/mL | 800 to 5000 ng/mL | 3000 to 5000 ng·h/mL | 200 to 800 ng/mL | C[C@H](CC(C)(F)F)OC(=O)Nc1c(-c2ccc(C#CC3(CC(=O)O)CC3)c(Cl)n2)nnn1C [compound 210, (R)-2-(1-((2-chloro-6-(5-((((4,4-difluoropentan-2-yl)oxy)carbonyl)amino)-1-methyl-1H-1,2,3-triazol-4-yl)pyridin-3-yl)ethynyl)cyclopropyl)acetic acid] |  |  |  |  | 
9.4 nM | 7.01 h |  | 3000 to 5000 ng·h/mL | 800 to 5000 ng/mL |  |  | Cc1nc(-c2nnn(C)c2CNc2nccc(C3CCC3)n2)ccc1C#CC1(CC(=O)O)CC1 [compound 214, 2-(1-((6-(5-(((4-cyclobutylpyrimidin-2-yl)amino)methyl)-1-methyl-1H-1,2,3-triazol-4-yl)-2-methylpyridin-3-yl)ethynyl)cyclopropyl)acetic acid] |  |  |  |  | half-life ([2]; male, SD, po, 3 mg/kg): 8.21 h; AUC(0-t) ([2]; male, SD rats, Po, 3 mg/kg): 10000 to 20000 ng·h/mL; Cmax ([2]; male, SD rats, Po, 3 mg/kg): 800 to 5000 ng/mL
 |  |  |  |  |  |  | Cc1nc(-c2nnn(C)c2CNC(=O)OCc2ccccc2)ccc1C#CC1(CC(=O)O)CC1 [compound 215] | 43 nM | 1200 to 3000 ng·h/mL | 5.03 h | 800 to 5000 ng/mL | AUC(0-t) ([2]; SD rats, Po, 3 mg/kg): 5000 to 10000 ng·h/mL; half-life ([2]; SD rats, Po, 3 mg/kg): 4.49 h; Cmax ([2]; SD rats, Po, 3 mg/kg): 800 to 5000 ng/mL
23.3 nM | 4.9 h |  | 1200 to 3000 ng·h/mL | 5000 to 8000 ng/mL |  |  | Cc1nc(-c2nnn(C)c2COc2nccc(C3CC(F)(F)C3)n2)ccc1C#CC1(CC(=O)O)CC1 [compound 216, 2-(1-((6-(5-(((4-(3,3-difluorocyclobutyl)pyrimidin-2-yl)oxy)methyl)-1-methyl-1H-1,2,3-triazol-4-yl)-2-methylpyridin-3-yl)ethynyl)cyclopropyl)acetic acid] |  |  |  |  | half-life ([2]; male, SD, po, 3 mg/kg): 4.44 h; AUC(0-t) ([2]; male, SD rats, Po, 3 mg/kg): 5000 to 10000 ng·h/mL; Cmax ([2]; male, SD rats, Po, 3 mg/kg): 800 to 5000 ng/mL
72.3 nM | 4.06 h |  | 1200 to 3000 ng·h/mL | 5000 to 8000 ng/mL |  |  | Cc1nc(-c2nnn(C)c2CNC(=O)OCCC(C)C)ccc1C#CC1(CC(=O)O)CC1 [compound 253] |  |  |  |  | half-life ([2]; male, SD, po, 3 mg/kg): 3.45 h; AUC(0-t) ([2]; male, SD rats, Po, 3 mg/kg): 5000 to 10000 ng·h/mL; Cmax ([2]; male, SD rats, Po, 3 mg/kg): 800 to 5000 ng/mL
63.9 nM | 7.04 h | 5.13 h | 3000 to 5000 ng·h/mL | 5000 to 8000 ng/mL | 3000 to 5000 ng·h/mL | 200 to 800 ng/mL | Cc1nc(-c2nnn(C)c2CNc2nccc(C3CC(F)(F)C3)n2)ccc1C#CC1(CC(=O)O)CC1 [compound 254] |  |  |  |  | 
 |  |  |  |  |  |  | Cc1nc(-c2nnn(C)c2NC(=O)O[C@H](C)CC(C)(C)F)ccc1C#CC1(CC(=O)O)CC1 [compound 263] | 52.8 nM | 3000 to 5000 ng·h/mL | 13.8 h | 800 to 5000 ng/mL | AUC(0-t) ([2]; SD rats, Po, 1 mg/kg): 5000 to 10000 ng·h/mL; half-life ([2]; SD rats, Po, 1 mg/kg): 10.2 h; Cmax ([2]; SD rats, Po, 1 mg/kg): 200 to 800 ng/mL
21.5 nM |  | 8.5 h |  |  | 3000 to 5000 ng·h/mL | 200 to 800 ng/mL | Cc1nc(-c2nnn(C)c2NC(=O)O[C@H](C)C(F)(F)C(C)C)ccc1C#CC1(CC(=O)O)CC1 [compound 265] |  |  |  |  | half-life ([2]; male, SD, iv, 0.63 mg/kg): 7.81 h; AUC(0-t) ([2]; male, SD rats, Iv, 0.63 mg/kg): 1200 to 3000 ng·h/mL; Cmax ([2]; male, SD rats, Iv, 0.63 mg/kg): 800 to 5000 ng/mL
50.3 nM | 12.1 h | 5.73 h | 3000 to 5000 ng·h/mL | 800 to 5000 ng/mL | 5000 to 10000 ng·h/mL | 800 to 5000 ng/mL | Cc1nc(-c2nnn(C)c2NC(=O)O[C@H](C)CC(C)(F)F)ccc1C#CC1(CC(=O)O)CCC1 [compound 324] |  |  |  |  | 
